Data reported in US20240269120A1, “Method for Treating an Autoimmune and Inflammatory Disease” (Cellestia Biotech AG, priority 2021, published 2024).

What was measured:
[1] = tested on: NSG mice injected with human PBMCs (GvHD); assay: Humanized GvHD mouse model, ex vivo pre-treated PBMCs plus in vivo treatment; parameters: GvHD clinical score: Body weight loss (D59) / GvHD clinical score: Paleness (D59) / GvHD clinical score: Posture (D59) / GvHD clinical score: Skin integrity (day 45) / GvHD clinical score: Activity score / GvHD clinical score: Fur texture (day 45): scale not given here; conditions: for GvHD clinical score: Body weight loss (D59): label = ex vivo PBMC treatment (7 hrs)/in vivo treatment (3 days), DMSO/Vehicle 2.0; for GvHD clinical score: Paleness (D59) / GvHD clinical score: Activity score / GvHD clinical score: Skin integrity (day 45) / GvHD clinical score: Posture (D59) / GvHD clinical score: Fur texture (day 45) / Cumulative GvHD score: label = ex vivo PBMC treatment/in vivo treatment; for GvHD clinical score: Paleness (D59): DMSO/Vehicle 0.9; for GvHD clinical score: Activity score: DMSO/Vehicle 1.0; for GvHD clinical score: Skin integrity (day 45): DMSO/Vehicle 1.25; for GvHD clinical score: Posture (D59): DMSO/Vehicle 1.3; for GvHD clinical score: Fur texture (day 45): DMSO/Vehicle 1.35; for Cumulative GvHD score: sum of individual scores, DMSO/Vehicle 7.8
Protocol: Humanized GvHD mouse model: 6-8 weeks old NSG mice were intraperitoneally injected with 10 million human peripheral blood mononuclear cells (PBMCs) as below:
A cumulative GvHD clinical score was calculated by addition of scores for individual parameters (e.g. cumulative score=BWL+posture+activity+fur texture+skin integrity+paleness).
Ex-vivo pre-treatment of PBMCs and in-vivo treatment of mice: Human PBMCs were ex-vivo treated with either DMSO or 6-(4-tert-butylphenoxy)pyridin-3-amine and then intraperitoneally injected into NSG mice. Mice were in vivo treated with different compounds as below: • i. DMSO ex vivo hPBMCs treatment (7 hrs), plus vehicle in vivo treatment • ii. DMSO ex vivo hPBMCs treatment (7 hrs), plus 6-(4-tert-butylphenoxy)pyridin-3-amine in vivo treatment for 3 days • iii. 6-(4-tert-butylphenoxy)pyridin-3-amine ex vivo hPBMCs treatment (7 hrs), plus 6-(4-tert-butylphenoxy)pyridin-3-amine in vivo treatment for 3 days • iv. DMSO ex vivo PBMCs treatment (7 hrs) plus Ruxolitinib in vivo treatment for 3 days • v. 6-(4-tert-butylphenoxy)pyridin-3-amine ex vivo hPBMCs treatment (7 hrs), plus Ruxolitinib in vivo treatment for 3 days
(§1) Following PBMC injections, mice were treated with vehicle or 6-(4-tert-butylphenoxy)pyridin-3-amine or Ruxolitinib starting at day 0. Mice were monitored from 60-85 days for symptoms of GvHD and scored according to a standard clinical scoring system for GvHD (Naserian et al., 2018) (see table 1) and a cumulative clinical score was obtained by addition of clinical score for individual parameters. A maximum score of 6 is measured when reaching endpoint. Cell proliferation assay: The effect of compounds on T cell proliferation was quantified using Cell trace violet (CTV). PBMCs/splenocytes were incubated with CTV for 20 minutes at 37° C. Cells were washed twice with RPMI complete medium. CTV labelled cells were stimulated with anti-CD3 and anti-CD28 antibodies and treated with control or compounds and cultured at 37° C. for 96 hours. The cell division index was measured by flow cytometry.

[2] = tested on: Treg cells; assay: Treg expansion in activated human PBMC cultures (anti-CD3/anti-CD28, flow cytometry); assay type: cell-based; conditions: anti-CD3 and anti-CD28, 96 hours, control 0%
Protocol: (§2) Human PBMCs and mouse splenocyte in vitro stimulation and treatment: Human peripheral blood mononuclear cells (PBMCs) and mouse splenocytes from donors were stimulated in vitro with anti-CD3 and anti-CD28 antibodies. The stimulated cells were simultaneously treated with compounds for 96 hours. The T cells were profiled for different cell surface and intracellular markers and proliferation by flow cytometry.
(§3) Flow cytometry analysis: Flow cytometry analysis was performed to quantify cell surface and intracellular markers expression and measure cell division index.
Viability staining: Cells were transferred into a 96 well conical bottom plate and washed with serum free PBS1×. Cells were incubated with Zombie NIR (Biolegend #423105)+FC block ([…]) for 20 minutes at 4° C. Cells were washed with staining medium (SM) (1×HBSS, 2.5 mM EDTA, 2% NBS
Cell surface marker staining: Cells were stained with antibodies against cell surface markers (CD3, CD4, CD8, CD25, Biolegend or ThermoFisher) for 20 minutes at 4° C. Cells were washed with SM before continuing with nuclear staining.
FOXP3 nuclear staining: Cells were fixed and permeabilized with Foxp3 Transcription Factor Staining Buffer Set (ThermoFisher #00-5523) for 20 minutes at room temperature. […] Results are finally analysed with the software FlowJo v.10.7.1.

[3] = tested on: activated CD4 T cells; assay: Cell proliferation assay (Cell trace violet), activated CD4 T cells; assay type: cell-based; conditions: control 0%
Protocol: as §1, §3

[4] = tested on: activated CD8 T cells; assay: Cell proliferation assay (Cell trace violet), activated CD8 T cells; assay type: cell-based; conditions: control 0%
Protocol: as §1, §3

[5] = tested on: IL-6; assay: ELISA of supernatant from activated human PBMC cultures: IL-6; assay type: cell-based; conditions: control 0%
Protocol: as §2
(§4) ELISA assay: Supernatant from activated human PBMC cultures described above was separated from cells at the end of culture time. Key cytokines (IL-6, IFN-γ, IL-17) were quantified using sandwich ELISA reagents set (Diaclone) following manufacturer's instruction manual.

[6] = tested on: IL-17; assay: ELISA of supernatant from activated human PBMC cultures: IL-17; assay type: cell-based; conditions: control 0%
Protocol: as §2, §4

[7] = tested on: IFNG; assay: ELISA of supernatant from activated human PBMC cultures: IFNG; assay type: cell-based; conditions: control 0%
Protocol: as §2, §4

[8] = tested on: irradiated Balb/c mice transplanted with TCD-BM + splenocytes from C57Bl6 mice (GvHD); assay: Allogeneic bone marrow transplant GvHD model; assay type: in vivo, mouse; conditions: allo-bone marrow transplant, compared with vehicle
Protocol: Allogeneic Bone marrow transplant: Recipient Balb/c mice were irradiated twice 3.75Gy (T=0 and T=4 h) in an X-ray source irradiator before transplantation at T=8 h. Treatment with antibiotics (Nopil) and analgesic (Dafalgan) was supplemented to drinking water 4 days before injection. Irradiated recipient Balb/c mice were transplanted with 5 million T cell depleted bone marrow+1 million splenocytes. Allogeneic recipient animals were treated with vehicle or 6-(4-tert-butylphenoxy)pyridin-3-amine subcutaneously at 20 mg/kg for two days immediately after allo-BM transplant, given a 10 days treatment holiday to recover body weight loss due to whole body irradiation and then treatment continued at 20 mg/kg. […] Animals were monitored for symptoms of GvHD development (severe body weight loss, alopecia and diarrhea.
Graft vs host disease (GvHD) is an example of alloimmune disease that develops following allo-hematopoetic stem cell transplant (allo-HSCT) in humans. The activity of 6-(4-tert-butylphenoxy)pyridin-3-amine and a calcineurin inhibitor Cyclosprin A was investigated in a mouse model of GvHD following allo-bone marrow transplant. In this model, T cell depleted bone marrow cells (TCD-BM)+splenocytes from C57Bl6 mice were transplanted into irradiated Balb/c mice.

| Compound | GvHD clinical score: Body weight loss (D59) [1] | GvHD clinical score: Paleness (D59) [1] | GvHD clinical score: Activity score [1] | GvHD clinical score: Skin integrity (day 45) [1] | GvHD clinical score: Posture (D59) [1] | GvHD clinical score: Fur texture (day 45) [1] | Cumulative GvHD score [1] | expansion of Treg cells [2] | Percentage inhibition of CD4 T cells (proliferation) [3] | Percentage inhibition of CD8 T cells (proliferation) [4] | Percentage downregulation of IL-6 [5] | Percentage downregulation of IL-17 [6] | Percentage downregulation of IFNG [7] | prevention of GvHD development (in words) [8] |
| --- | --- | --- | --- | --- | --- | --- | --- | --- | --- | --- | --- | --- | --- | --- |
| CC(C)(C)c1ccc(Oc2ccc(N)cn2)cc1 [6-(4-tert-butylphenoxy)pyridin-3-amine/6-(4-tert-butylphenox] | 0.9 | 1.2 | 0.5 | 0.7 | 0.7 | 1.2 | 5.2 |  |  |  |  |  |  |  |
| Cc1nc(Oc2ccc(-c3ccc(F)cc3)cc2)ccc1N [6-((4′-fluoro-[1,1′-biphenyl]-4-yl)oxy)-2-methylpyridin-3-amine] |  |  |  |  |  |  |  | 120% | 40% | 74% | 66% | 78% | 41% |  |
| CC(C)(C)c1ccc(Oc2ccc(N)cn2)cc1 [DMSO/6-(4-tert-butylphenoxy)pyridin-3-amine] | 1.35 | 1.2 | 0.5 | 0.65 | 1.3 | 0.95 | 5.95 |  |  |  |  |  |  |  |
| N#CC[C@H](C1CCCC1)n1cc(-c2ncnc3[nH]ccc23)cn1 [DMSO/Ruxolitinib, Ruxolitinib, reference compound] | 1.6 | 0.9 | 0.9 | 1.2 | 1.2 | 1.1 | 6.9 |  |  |  |  |  |  |  |
| CNc1ccc(Oc2ccc(-c3cncs3)cc2)nc1 [N-methyl-6-(4-(thiazol-5-yl)phenoxy)pyridin-3-amine] |  |  |  |  |  |  |  |  |  |  | 80% | 85% | 38% |  |
| Cyclosporin A [reference compound] |  |  |  |  |  |  |  |  |  |  |  |  |  | did not perform better than vehicle treated animals |
